Laboratory results published in PMC3635668 (Analytical chemistry, 2013).
Read-outs that look alike come from different tables or passages of the source. Non-standard residues stand in square brackets, D forms with d. No end group written: not given here. Sta = CC(C)C[C@H](N)[C@@H](O)CC(=O)O

How the values were obtained:
[1] = molecular target: BACE1 (Homo sapiens, UniProt P56817); assay: SPR antibody-amplified BACE1 cleavage inhibition assay, immobilized APP; type: biochemical; conditions: for BACE1 inhibition, two-channel screening (in words): 30 nM compound 1 (CH1) or 2 μM compound 2 (CH2), Figure 2B
Chain of BACE1 (Homo sapiens, UniProt P56817) (P56817 46-501): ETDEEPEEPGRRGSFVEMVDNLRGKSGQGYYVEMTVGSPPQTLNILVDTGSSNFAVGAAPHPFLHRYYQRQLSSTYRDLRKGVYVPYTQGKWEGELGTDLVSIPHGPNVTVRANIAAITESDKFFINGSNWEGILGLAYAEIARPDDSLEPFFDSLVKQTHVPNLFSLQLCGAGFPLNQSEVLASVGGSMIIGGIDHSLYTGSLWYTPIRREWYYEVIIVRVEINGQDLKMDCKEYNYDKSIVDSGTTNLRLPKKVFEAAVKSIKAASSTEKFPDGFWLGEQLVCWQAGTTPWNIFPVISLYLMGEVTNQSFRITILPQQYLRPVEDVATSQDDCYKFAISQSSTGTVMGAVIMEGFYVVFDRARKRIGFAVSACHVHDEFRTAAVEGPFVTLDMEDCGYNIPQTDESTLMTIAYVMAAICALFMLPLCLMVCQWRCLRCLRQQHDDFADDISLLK

[2] = system: BACE1; conditions: read-out: IC50 (ELISA); measured from ELISA; cited from earlier work
[3] = system: BACE1; conditions: read-out: IC50 (MS); determined by MS; cited from earlier work
[4] = 10 nM BACE1, SA-coated PEG chip

Substance	BACE1 inhibition, two-channel screening (in words) [1, 4]	relative potency compound 1 vs compound 2 (in words) ([1]; 30 nM compound 1 vs 2 μM compound 2, Figure 2B)	BACE1 inhibition (in words) ([1]; 40 nM compound, 10 nM BACE1, SA-coated PEG chip, Figure 2A curve c)	IC50 [2]	IC50 [3]	BACE1 inhibition (in words) ([1]; 2 μM compound 2, 10 nM BACE1, Ni-NTA chip, Figure 4 cycle 4)
KTEEISEVN-Sta-VAEF (KTEEISEVN[Sta]VAEF) [Compound 1]	exhibited inhibition of the BACE1 activity	much more potent inhibitor	insufficient to completely halt the peptide cleavage by BACE1	30 nM		
Ph-LL-4,5-dehydro-L-CHO [Compound 2]	exhibited inhibition of the BACE1 activity				3000 nM	partially inhibits BACE1
